Reference: publication PMC10054634, “Chemical Constituents of Thesium chinense Turcz and Their In Vitro Antioxidant, Anti-Inflammatory and Cytotoxic Activities” (Molecules, 2023)
“Also recorded” adds a separate entry of the source.

How the values were obtained:
[1] = DPPH radical scavenging assay; conditions: for SC50: concentration required for 50% reduction of DPPH radicals, 37 °C, 30 min, 517 nm, nc = SC50 cannot be calculated due to weak or no related activities
Protocol: The 2, 2-diphenyl-1-picrylhydrazyl (Aldrich Chem. Co. Ltd, Shanghai, China) radical scavenging activity assay was performed according to the previously published method with some modification. Test samples were dissolved in MeOH to six different concentrations ranging from 3.125 to 100 μM. Then, 100 μL of 100 μM DPPH in MeOH were mixed with 100 μL of samples at different concentrations in the wells of 96-well plates. The reaction mixtures were incubated in the dark at 37 °C for 30 min and then measured at 517 nm. Ascorbic acid was used as the positive control. The scavenging activity (SC) was estimated as follows: % SC = [1 − (Asample − Ablank)/Acontrol] ×100. Asample was the equivalent mixture of test sample and DPPH solution. Ablank was the equivalent mixture of test sample and MeOH solution. Acontrol was the equivalent mixture of DPPH and MeOH solution. The SC50 values were used to evaluate the antioxidant activities of isolated compounds. The experiments were performed in triplicate, and the data were expressed as the means ± SD of three independent experiments.

A549 = test: Cytotoxic assay (CCK-8), A549; format: cell-based, human; conditions: A549, 48 h, mean ± SD (n = 3)
Protocol: (§1) Four human cancer cell lines, A549, NCI-H292, SiHa and MKN45, were purchased from the Cell Bank of the Chinese Academy of Sciences (Shanghai, China). […] Cisplatin (Abmole Bioscience, Shanghai, China) was used as positive control.
(§2) A total of 180 μL of cancer cells (5 × 10^3) were plated in each well of 96-well plates and cultured for 24 h, then the supernatant of the culture was discarded and 180 μL complete medium with different concentrations of test samples were added into triplicate wells of each cell line, respectively. Thereafter, A549, NCI-H292, SiHa and MKN45 were incubated for 48 h, respectively. The cell viability was evaluated by Cell Counting Kit-8 (CCK-8, Best Bio., Beijing, China), respectively. The experiments were performed in triplicate, and the data were expressed as the means ± SD of three independent experiments.

NCI-H292 = test: Cytotoxic assay (CCK-8), NCI-H292; format: cell-based, human; conditions: NCI-H292, 48 h, mean ± SD (n = 3)
Protocol: as §1, §2

SiHa = test: Cytotoxic assay (CCK-8), SiHa; format: cell-based, human; conditions: Homo sapiens, 48 h, mean ± SD (n = 3)
Protocol: as §1, §2

MKN45 = test: Cytotoxic assay (CCK-8), MKN45; format: cell-based, human; conditions: mean ± SD (n = 3)
Protocol: as §1, §2

[2] = system: NO production in LPS-activated RAW 264.7 cells; test: Inhibition of NO production in LPS-activated RAW 264.7 cells (Griess reaction); format: cell-based; conditions: Mus musculus, RAW264.7; RAW 264.7, 1 μg/mL LPS, 24 h; mean ± SD (n = 3); read-out: IC50 (NO inhibitory activity)
Protocol: The macrophage RAW 264.7 cells were obtained from the Cell Bank of the Chinese Academy of Sciences (Shanghai, China). A total of 180 μL of RAW 264.7 cells (1 × 10^4) were plated respectively in each well of 96-well plate and cultured for 24 h, then the supernatant of the culture was discarded and 180 μL complete medium with 1 μg/mL LPS and different concentrations of test samples were added into triplicate wells for 24 h. The inhibition effects on LPS-stimulated NO production was evaluated by the Griess reaction assay. The experiments were performed in triplicate, and the data were expressed as the means ± SD of three independent experiments.

[3] = Cytotoxicity in RAW 264.7 cells (CCK-8); conditions: mouse
Protocol: The cell viability was determined by the CCK-8 assay method. The cytotoxicity was calculated from the plotted results using untreated cells at 100%.

[4] = Homo sapiens, MKN-45, MKN45, 48 h

IC50 [2] [µM] | SMILES | SC50 [1] [µM] | SC50 ([1]; listed as ascorbic acid) [µM] | IC50 (A549; Homo sapiens) [µM] | IC50 (NCI-H292; Homo sapiens) [µM] | IC50 (SiHa) [µM] | IC50 (MKN45; [4]) [µM] | IC50 [3] [µM] | IC50 (A549) [µM] | IC50 (NCI-H292) [µM] | IC50 (MKN45; MKN45, 48 h) [µM] | antioxidant activity on DPPH radical scavenging (in words) ([1]; compared with positive control ascorbic acid)
 | O=C1O[C@H]([C@@H](O)CO)C(O)=C1O [Ascorbic acid, reference compound] | 15.6 ± 0.8 | 15.5 ± 0.8 |  |  |  |  |  |  |  |  | 
> 200 | OCCc1ccc(O)c(O[C@@H]2O[C@H](CO)[C@@H](O)[C@H](O)[C@H]2O[C@@H]2O[C@H](CO)[C@@H](O)[C@H](O)[C@H]2O)c1 [Compound 2, 3,4-dihydroxyphenethyl alcohol 3-O-β-D-glucopyranosyl (1→2)-β-D-glucopyranoside] |  |  | > 200 | > 200 | > 200 | > 200 | > 200 |  |  |  | 
> 200 | CC/C=C\CCO[C@@H]1O[C@H](CO)[C@@H](O)[C@H](O)[C@H]1O[C@@H]1O[C@H](CO)[C@@H](O)[C@H](O)[C@H]1O [Compound 3, (Z)-hex-3-ene 3-O-β-D-glucopyranosyl (1→2)-β-D-glucopyranoside] |  |  | > 200 | > 200 | > 200 | > 200 | > 200 |  |  |  | 
 | C[C@]12CC[C@H](O)C[C@@]1(O)CCC1C2CC[C@]2(C)[C@@H](C3=CC(=O)OC3)CC[C@]12O (stereo partly shown) [Compound 4, perlplogemn] |  |  |  |  |  |  |  | 17.4 ± 2.4 | 22.2 ± 1.1 | 9.5 ± 0.7 | 
> 200 | OCCc1cc(O)cc(O[C@@H]2O[C@H](CO)[C@@H](O)[C@H](O)[C@H]2O)c1 [Compound 7, 3,5-dihydroxyphenethyl alcohol 3-O-β-D-glucopyranoside] | 255.2 ± 12.6 |  | > 200 | > 200 | > 200 | > 200 | > 200 |  |  |  | weak antioxidant activities; also recorded: weak activity
> 200 | OCC1OC(OC2C(OCCc3ccccc3)OC(CO)C(O)C2O)C(O)C(O)C1O (stereo not drawn) [Compound 8, phenethyl alcohol β-sophoroside] |  |  | > 200 | > 200 | > 200 | > 200 | > 200 |  |  |  | 
> 200 | COc1cc(C(O)C(CO)Oc2c(OC)cc(C3OCC4C(c5ccc(OC6OC(CO)C(O)C(O)C6O)c(OC)c5)OCC34)cc2OC)ccc1O (stereo not shown) [Compound 9, samsesquinoside] | 47.3 ± 2.3 |  | > 200 | > 200 | > 200 | > 200 | > 200 |  |  |  | 
> 200 | COc1cc(C2OCC3C(c4ccc(OC5OC(CO)C(O)C(O)C5O)c(OC)c4)OCC23)ccc1O [Compound 10, pinoresinol-4-O-D-glucoside] | 30.5 ± 6.5 |  | > 200 | > 200 | > 200 | > 200 | > 200 |  |  |  | 
> 200 | COc1cc(C2Oc3c(OC)cc(CCCO)cc3C2CO)ccc1OC1OC(CO)C(O)C(O)C1O [Compound 12, dihydrodehydro diconiferyl alcohol 4-O-β-D-glucoside] |  |  | > 200 | > 200 | > 200 | > 200 | > 200 |  |  |  | 

SMILES | IC50 [2] [µM] | SC50 [1] [µM] | SC50 ([1]; listed as ascorbic acid) [µM] | IC50 (A549; Homo sapiens) [µM] | IC50 (NCI-H292; Homo sapiens) [µM] | IC50 (SiHa) [µM] | IC50 (MKN45; [4]) [µM] | IC50 [3] [µM] | IC50 (A549) [µM] | IC50 (NCI-H292) [µM] | IC50 (MKN45; MKN45, 48 h) [µM] | antioxidant activity on DPPH radical scavenging (in words) ([1]; compared with positive control ascorbic acid)
CO[C@H]1C[C@H](OC2CC[C@]3(C)C4CC[C@]5(C)[C@@H](C6=CC(=O)OC6)CC[C@]5(O)C4CC[C@]3(O)C2)O[C@H](C)[C@H]1O[C@@H]1O[C@H](CO)[C@@H](O)[C@H](O)[C@H]1O (stereo partly shown) [Compound 5, periplocin] | > 200 |  |  | < 0.1 | < 0.1 | < 0.1 | < 0.1 | > 200 |  |  |  | 
COc1cc(C2OCC3C(c4cc(OC)c(OC5OC(CO)C(O)C(O)C5O)c(OC)c4)OCC23)cc(OC)c1O [Compound 11, syringaresinol-4′-O-β-D-glucopyranoside] | > 200 | 16.2 ± 1.6 |  | > 200 | > 200 | > 200 | > 200 | > 200 |  |  |  | 
